# Tests used:
# SHP1 = target: T1, SHP1 (Mus musculus, UniProt P29351); experiment: SHP1 tyrosine phosphatase activity in LPS-activated BMDCs; assay type: cell-based; conditions: VitE 50 μg/ml vs vehicle, LPS 100 ng/ml stimulation
# T1 construct: We immunoprecipitated SHP1 from the vehicle or VitE-treated DC2.4 cells or BMDCs with a monoclonal SHP1 antibody; endogenous in cells
# Excerpt: FIG. 3A: […] FIG. 3B: t-SNEs by CyTOF and quantification comparing the intensity of […]-SHP1 in TADCs from the vehicle-or VitE-treated EMT6 tumors at day 15 post-implantation. FIG. 3C: Top, SHP1 knockdown in BMDCs was effective. Bottom, CFSE-dilution analysis of OT-1 T cells co-cultured with OVA protein-pulsed BMDCs (ratio 10:1) with knockdown of SHP1 by […]6 versus siCtrl (n=3). Right, quantification of OT-1 T-cell numbers under the indicated condition. FIG. 3D: The binding of VitE to purified SHP1 is analyzed by microscale thermophoresis (MST) binding assay. […] FIG. 3E: Relative tyrosine phosphatase activity of SHP1 immunoprecipitated from LPS (100 ng/ml)-activated DC2.4 cells in the presence of indicated doses of VitE (mean of triplicates). FIG. 3F: SHP1 tyrosine phosphatase activity in LPS (100 ng/ml)-activated BMDCs (n=6) treated with vehicle-or VitE (50 μg/ml). Error bars, s.e.m. ns, no significant. *P<0.05, **P<0.01. ***P<0.001, ****P<0.0001. Bone marrow (BM) was harvested from C57BL/6J, BALB/Cj mice by flushing femurs, tibias, and humeri with DCs culture medium. […] We assessed the phosphatase activity of SHP1 by using the RediPlate 96 EnzChek Tyrosine Phosphatase Assay Kit (ThermoFisher). […] We placed beads into RediPlate wells and incubated them for 30 min at 25° C. before reading them for fluorescence. […]
# EMT6 mammary tumors = experiment: Orthotopic EMT6 mammary tumor model; assay type: in vivo, mouse
# B16-GMCSF melanoma = B16-GMCSF melanoma model; assay type: in vivo, mouse
# pY564-SHP1 = experiment: Reverse phase protein array (RPPA) of BMDCs; assay type: cell-based, mouse; conditions: VitE 50 μg/ml, tumor conditioned media, 48 hours
# Experimental: FIG. 3A: Volcano plot of reverse phase protein array (RPPA) data of mouse BMDCs treated with VitE (50 μg/ml) compared to those treated with vehicle control with tumor conditioned media (TCM) for 48 hours (n=3 independent samples). […] The grey dashed line indicates P-value of 0.05. FIG. 3B: t-SNEs by CyTOF and quantification comparing the intensity of pY564-SHP1 in TADCs from the vehicle-or VitE-treated EMT6 tumors at day 15 post-implantation. FIG. 3C: Top, SHP1 knockdown in BMDCs was effective. Bottom, CFSE-dilution analysis of OT-1 T cells co-cultured with OVA protein-pulsed BMDCs (ratio 10:1) with knockdown of SHP1 by siPtpn6 versus siCtrl (n=3). Right, quantification of OT-1 T-cell numbers under the indicated condition. FIG. 3D: The binding of VitE to purified SHP1 is analyzed by microscale thermophoresis (MST) binding assay. […] FIG. 3E: Relative tyrosine phosphatase activity of SHP1 immunoprecipitated from LPS (100 ng/ml)-activated DC2.4 cells in the presence of indicated doses of VitE (mean of triplicates). FIG. 3F: SHP1 tyrosine phosphatase activity in LPS (100 ng/ml)-activated BMDCs (n=6) treated with vehicle-or VitE (50 μg/ml). Error bars, s.e.m. ns, no significant. *P<0.05, **P<0.01. ***P<0.001, ****P<0.0001.
# To explore the molecular mechanism of VitE on DCs function, we performed a reverse-phase protein array (RPPA) analysis on DCs. […]
# HY19636 KPC tumor = experiment: Orthotopic HY19636 KPC PDAC tumor model; assay type: in vivo, mouse
# Experimental: FIG. 6E: Measurement of maximal tumor diameter in HY1936 KPC tumor-bearing mice treated with gemcitabine (GEM, 25 mg/kg by i.p.) and ICT (anti-PDI/anti-CTLA4) along with vehicle or VitE (n=5). FIG. 6F: Kaplan-Meier survival curve of HY19636 KPC tumor-bearing mice treated with vehicle, GEM (gemcitabine, 25 mg/kg by i.p.), GEM+ICT (anti-PDI/anti-CTLA4) plus vehicle or VitE (n=6).
# Syngeneic orthotopic PDAC tumors were established by surgical implantation. Briefly, 2,000 HY19636 KPC cells in 50 μl PBS were injected into each pancreas of the C57BL/6J mouse.
# (§1) Treatments were given as single agents or in combinations with the indicated regimens for each group. VitE (D-α-Tocopherol type VI, Cat.T1539, Sigma-Aldrich) was formulated in the vehicle (10% ethanol in sterile water) and administered by oral gavage once a day at a dose of 50 mg/kg body weight (100 μl at 10 mg/ml per day), corresponding to 400 to 600 mg/day in a human weighing 60 kg, which is within the range of doses recommended for supplement and pharmacological use. VitE treatment was initiated on day 4 ending until the ending point.
# For chemo combination treatment, HY19636 KPC tumor-bearing mice were treated with gemcitabine (GEM) at 25 mg/kg body weight by i.p. injection once a week from day 7 and 4T1 TNBC tumor-bearing mice were given with doxorubicin (Dox, 5 mg/kg body weight) by i.v. once a week from day 10. The chemotherapeutic doses and schedules used in this study are below or within the range of the concentrations used in the clinic after converting drug doses between species.
# B16-F10 melanoma = conditions: VitE and ICT combo-treatment
# Experimental: For the melanoma tumor challenges, 2×10^5 B16-F10, B16-GMCSF, or B16-FLT3L cells were subcutaneously (s.c.) injected into the right flank of C57BL/6J mice on day 0.
# as §1
# For tumor volume analysis, each tumor was measured every 3-4 days with a digital caliper beginning on day 7 after the challenge. Tumor volume was calculated using the formula V=(L×W^2)/2 and expressed as mm^3, where V is tumor volume, L is the length of the tumor (longer diameter) and W is the width of the tumor (shorter diameter). Mice were monitored for tumor growth and survival. Measurements were assessed manually by assessing the longest dimension (length, L) and the longest perpendicular dimension (width, W). Tumor volume was calculated using the formula: (L×W^2)/2.
# [1] = VitE 50 mg/kg and ICT (anti-PD1) combo-treatment
# [2] = VitE added to GEM+ICT vs GEM+ICT+vehicle
# T1 sequence (P29351 whole entry): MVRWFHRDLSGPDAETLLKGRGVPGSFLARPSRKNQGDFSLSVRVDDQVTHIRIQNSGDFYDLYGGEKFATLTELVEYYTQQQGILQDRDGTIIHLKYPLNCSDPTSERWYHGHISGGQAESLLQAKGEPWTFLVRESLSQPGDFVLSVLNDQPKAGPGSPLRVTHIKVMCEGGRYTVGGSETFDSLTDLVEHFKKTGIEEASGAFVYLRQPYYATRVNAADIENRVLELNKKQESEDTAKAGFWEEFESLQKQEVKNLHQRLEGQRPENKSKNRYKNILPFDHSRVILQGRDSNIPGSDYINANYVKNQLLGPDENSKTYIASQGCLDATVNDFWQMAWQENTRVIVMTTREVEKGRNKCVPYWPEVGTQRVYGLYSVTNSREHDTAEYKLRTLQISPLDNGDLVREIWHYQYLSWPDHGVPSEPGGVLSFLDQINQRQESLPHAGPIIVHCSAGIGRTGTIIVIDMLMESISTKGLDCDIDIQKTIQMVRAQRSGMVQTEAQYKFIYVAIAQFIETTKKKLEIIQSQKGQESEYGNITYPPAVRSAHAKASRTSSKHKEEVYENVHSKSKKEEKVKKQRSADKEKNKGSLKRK
structure (smiles),measurement,setting,value
"Cc1c(C)c2c(c(C)c1O)CC[C@@](C)(CCC[C@H](C)CCC[C@H](C)CCCC(C)C)O2 [VitE, D-α-Tocopherol]",SHP1 activity in BMDCs,SHP1,marked reduction of SHP1 function
same,average tumor volume at day 15,"EMT6 mammary tumors; BALB/c mice, n=10 per group, vehicle-treated 350 mm^3",173 mm^3
same,pY564-SHP1 level in TADCs,"EMT6 mammary tumors; CyTOF, day 15 post-implantation, VitE vs vehicle",reduced the pY564-SHP1 level in TADCs
same,therapeutic response,EMT6 mammary tumors; [1],significantly improved therapeutic response
same,tumor growth,EMT6 mammary tumors; VitE alone vs vehicle-treated group,reduced tumor growth
same,tumor infiltration of immune cells (CyTOF of CD45+ cells),EMT6 mammary tumors; VitE treatment vs vehicle,increased the tumor infiltrations of CD11c+DCs and CD8+ T cells
same,tumor growth,B16-GMCSF melanoma; GVAX+VitE (50 mg/kg/day oral gavage day 4-20),significant tumor inhibition
same,tumor-infiltrating GZMB+CD8+ T cells,"B16-GMCSF melanoma; GVAX+VitE, day 14 post-implantation",increased tumor-infiltrating cytolytic GZMB CD8^+ T cells
same,therapeutic response,B16-GMCSF melanoma; [1],significantly improved therapeutic response
same,phosphorylation of SHP1 at Y564 in DCs,pY564-SHP1,decreased the phosphorylation at tyrosine 564 (Y564)
same,survival time,HY19636 KPC tumor; [2],prolonged the survival time
same,tumor growth,HY19636 KPC tumor; [2],effectively inhibited the HY19636KPC PDAC tumor growth
same,ascites,"HY19636 KPC tumor; VitE added to GEM+ICT, day 25",reduced tumor-induced ascites
same,therapeutic effect,B16-F10 melanoma,no therapeutic effect

# Source: US20240424019A1, “SHP1 MODIFIED DENDRITIC CELLS AND EXTRACELLULAR VESICLES DERIVED THEREFROM AND ASSOCIATED METHODS” (BOARD OF REGENTS, THE UNIVERSITY OF TEXAS SYSTEM, priority 2021, published 2024)
